Measured values as given in the supplement of paper PMC10627819.

How the values were obtained:
B. subtilis 168 [1] = test: fitness (endpoint OD595 vs no drug) (fraction); higher = more growth
In short: (§1)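 Cultures at OD595 0.01 were dispensed into 384-well plates in TSB, LB Lennox or CY and incubated at 37 °C. Every 30 min for 14 h, OD595 was read and corrected by the first reading. Fitness is the optical density at entry into stationary phase relative to the robust mean of no-drug control wells, capped at 1.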

S. aureus DSM 20231 [2] = test: as above
In short: as §1

S. aureus Newman [3] = test: as above
In short: as §1

S. pneumoniae D39V [4] = test: as above
In short: as §1

B. subtilis 168 [5] = test: Bliss interaction score (quartile over a dose matrix) (fitness difference); higher = more antagonism (negative = synergy)
In short: (§2)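 The Bliss score is observed minus expected fitness under the product model, reported as quartiles over technical, biological and donor/recipient replicates. Fitness is the OD595 at entry into stationary phase divided by the plate's robust no-drug mean and capped at 1. Single-drug fitness was inferred from combination data.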

S. aureus DSM 20231 [6] = test: as above
In short: as §2

S. aureus Newman [7] = test: as above
In short: as §2

S. pneumoniae D39V [8] = test: as above
In short: as §2
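Throughout, for Bliss interaction score (quartile over a dose matrix): first quartile when negative (synergy) and third quartile when positive (antagonism).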

CO/N=C(\C(=O)N[C@@H]1C(=O)N2C(C(=O)O)=C(COC(C)=O)CS[C@H]12)c1csc(N)n1 [Cefotaxime] + COc1c(N2C[C@@H]3CCCN[C@@H]3C2)c(F)cc2c(=O)c(C(=O)O)cn(C3CC3)c12 [Moxifloxacin]
one replicate
Details	fitness
B. subtilis 168 [1], first compound 0.00775 µg/mL, partner 0.0312 µg/mL	0.0585
B. subtilis 168 [1], first compound 0.00775 µg/mL, partner 0.0625 µg/mL	0.0377
B. subtilis 168 [1], first compound 0.00775 µg/mL, partner 0.125 µg/mL	0.0204
B. subtilis 168 [1], first compound 0.0155 µg/mL, partner 0.0312 µg/mL	0.0281
B. subtilis 168 [1], first compound 0.0155 µg/mL, partner 0.0625 µg/mL	0.0221
B. subtilis 168 [1], first compound 0.0155 µg/mL, partner 0.125 µg/mL	0.0115
B. subtilis 168 [1], first compound 0.031 µg/mL, partner 0.0312 µg/mL	0.041
B. subtilis 168 [1], first compound 0.031 µg/mL, partner 0.0625 µg/mL	0.028
B. subtilis 168 [1], first compound 0.031 µg/mL, partner 0.125 µg/mL	0.0186
S. aureus DSM 20231 [2], first compound 0.039 µg/mL, partner 0.06 µg/mL	0.611
S. aureus DSM 20231 [2], first compound 0.039 µg/mL, partner 0.12 µg/mL	0.449
S. aureus DSM 20231 [2], first compound 0.078 µg/mL, partner 0.06 µg/mL	0.588
S. aureus DSM 20231 [2], first compound 0.078 µg/mL, partner 0.12 µg/mL	0.478
S. aureus DSM 20231 [2], first compound 0.156 µg/mL, partner 0.06 µg/mL	0.568
S. aureus DSM 20231 [2], first compound 0.156 µg/mL, partner 0.12 µg/mL	0.445
S. aureus DSM 20231 [2], first compound 0.312 µg/mL, partner 0.06 µg/mL	0.518
S. aureus DSM 20231 [2], first compound 0.312 µg/mL, partner 0.12 µg/mL	0.408
S. aureus Newman [3], first compound 0.039 µg/mL, partner 0.0075 µg/mL	0.669
S. aureus Newman [3], first compound 0.039 µg/mL, partner 0.015 µg/mL	0.529
S. aureus Newman [3], first compound 0.039 µg/mL, partner 0.03 µg/mL	0.0684

Details	fitness
B. subtilis 168 [1], first compound 0.0625 µg/mL, partner 0.0312 µg/mL	0.0617
B. subtilis 168 [1], first compound 0.0625 µg/mL, partner 0.0625 µg/mL	0.0437
B. subtilis 168 [1], first compound 0.0625 µg/mL, partner 0.125 µg/mL	0.0547
B. subtilis 168 [1], first compound 0.125 µg/mL, partner 0.0312 µg/mL	0.062
B. subtilis 168 [1], first compound 0.125 µg/mL, partner 0.0625 µg/mL	0.044
B. subtilis 168 [1], first compound 0.125 µg/mL, partner 0.125 µg/mL	0.05
B. subtilis 168 [1], first compound 0.25 µg/mL, partner 0.0312 µg/mL	0.0545
B. subtilis 168 [1], first compound 0.25 µg/mL, partner 0.0625 µg/mL	0.0527
B. subtilis 168 [1], first compound 0.25 µg/mL, partner 0.125 µg/mL	0.0632
B. subtilis 168 [1], first compound 0.5 µg/mL, partner 2 µg/mL	0.0626
B. subtilis 168 [1], first compound 0.5 µg/mL, partner 4 µg/mL	0.0595
B. subtilis 168 [1], first compound 0.5 µg/mL, partner 8 µg/mL	0.043
B. subtilis 168 [1], first compound 1 µg/mL, partner 2 µg/mL	0.0496
B. subtilis 168 [1], first compound 1 µg/mL, partner 4 µg/mL	0.0443
B. subtilis 168 [1], first compound 1 µg/mL, partner 8 µg/mL	0.0259
B. subtilis 168 [1], first compound 2 µg/mL, partner 2 µg/mL	0.0811
B. subtilis 168 [1], first compound 2 µg/mL, partner 4 µg/mL	0.0907
B. subtilis 168 [1], first compound 2 µg/mL, partner 8 µg/mL	0.0539
S. aureus DSM 20231 [2], first compound 0.039 µg/mL, partner 0.0075 µg/mL	0.674
S. aureus DSM 20231 [2], first compound 0.039 µg/mL, partner 0.015 µg/mL	0.612
S. aureus DSM 20231 [2], first compound 0.039 µg/mL, partner 0.03 µg/mL	0.543
S. aureus DSM 20231 [2], first compound 0.078 µg/mL, partner 0.0075 µg/mL	0.668
S. aureus DSM 20231 [2], first compound 0.078 µg/mL, partner 0.015 µg/mL	0.634
S. aureus DSM 20231 [2], first compound 0.078 µg/mL, partner 0.03 µg/mL	0.554
S. aureus DSM 20231 [2], first compound 0.156 µg/mL, partner 0.0075 µg/mL	0.636
S. aureus DSM 20231 [2], first compound 0.156 µg/mL, partner 0.015 µg/mL	0.603
S. aureus DSM 20231 [2], first compound 0.156 µg/mL, partner 0.03 µg/mL	0.536
S. aureus DSM 20231 [2], first compound 0.312 µg/mL, partner 0.0075 µg/mL	0.574
S. aureus DSM 20231 [2], first compound 0.312 µg/mL, partner 0.015 µg/mL	0.549
S. aureus DSM 20231 [2], first compound 0.312 µg/mL, partner 0.03 µg/mL	0.491
S. aureus Newman [3], first compound 0.078 µg/mL, partner 0.0075 µg/mL	0.657
S. aureus Newman [3], first compound 0.078 µg/mL, partner 0.015 µg/mL	0.498
S. aureus Newman [3], first compound 0.078 µg/mL, partner 0.03 µg/mL	0.0551
S. aureus Newman [3], first compound 0.156 µg/mL, partner 0.0075 µg/mL	0.558
S. aureus Newman [3], first compound 0.156 µg/mL, partner 0.015 µg/mL	0.432
S. aureus Newman [3], first compound 0.156 µg/mL, partner 0.03 µg/mL	0.046
S. aureus Newman [3], first compound 0.312 µg/mL, partner 0.0075 µg/mL	0.354
S. aureus Newman [3], first compound 0.312 µg/mL, partner 0.015 µg/mL	0.165
S. aureus Newman [3], first compound 0.312 µg/mL, partner 0.03 µg/mL	0.0657
S. aureus Newman [3], first compound 0.625 µg/mL, partner 0.0075 µg/mL	0.0357
S. aureus Newman [3], first compound 0.625 µg/mL, partner 0.015 µg/mL	0.019
S. aureus Newman [3], first compound 0.625 µg/mL, partner 0.03 µg/mL	0.0143
S. aureus Newman [3], first compound 1.25 µg/mL, partner 0.0075 µg/mL	0.0365
S. aureus Newman [3], first compound 1.25 µg/mL, partner 0.015 µg/mL	0.0045
S. aureus Newman [3], first compound 1.25 µg/mL, partner 0.03 µg/mL	0.0158
S. aureus Newman [3], first compound 2.5 µg/mL, partner 0.0075 µg/mL	0.0488
S. aureus Newman [3], first compound 2.5 µg/mL, partner 0.015 µg/mL	0.0142
S. aureus Newman [3], first compound 2.5 µg/mL, partner 0.03 µg/mL	0.0162
S. pneumoniae D39V [4], first compound 0.0018 µg/mL, partner 0.005 µg/mL	0.979
S. pneumoniae D39V [4], first compound 0.0018 µg/mL, partner 0.01 µg/mL	0.976
S. pneumoniae D39V [4], first compound 0.0018 µg/mL, partner 0.02 µg/mL	0.987
S. pneumoniae D39V [4], first compound 0.0018 µg/mL, partner 0.0312 µg/mL	0.13
S. pneumoniae D39V [4], first compound 0.0018 µg/mL, partner 0.0625 µg/mL	0.0856
S. pneumoniae D39V [4], first compound 0.0018 µg/mL, partner 0.125 µg/mL	0.0466
S. pneumoniae D39V [4], first compound 0.0035 µg/mL, partner 0.005 µg/mL	0.973
S. pneumoniae D39V [4], first compound 0.0035 µg/mL, partner 0.01 µg/mL	0.976
S. pneumoniae D39V [4], first compound 0.0035 µg/mL, partner 0.02 µg/mL	0.964
S. pneumoniae D39V [4], first compound 0.0035 µg/mL, partner 0.0312 µg/mL	0.108
S. pneumoniae D39V [4], first compound 0.0035 µg/mL, partner 0.0625 µg/mL	0.0929
S. pneumoniae D39V [4], first compound 0.0035 µg/mL, partner 0.125 µg/mL	0.0516
S. pneumoniae D39V [4], first compound 0.007 µg/mL, partner 0.005 µg/mL	0.801
S. pneumoniae D39V [4], first compound 0.007 µg/mL, partner 0.01 µg/mL	0.827
S. pneumoniae D39V [4], first compound 0.007 µg/mL, partner 0.02 µg/mL	0.833
S. pneumoniae D39V [4], first compound 0.007 µg/mL, partner 0.0312 µg/mL	0.0633
S. pneumoniae D39V [4], first compound 0.007 µg/mL, partner 0.0625 µg/mL	0.0639
S. pneumoniae D39V [4], first compound 0.007 µg/mL, partner 0.125 µg/mL	0.046

Details	Bliss interaction score
B. subtilis 168 [5]	0.0581
S. aureus DSM 20231 [6]	-0.0497
S. aureus Newman [7]	0.0354
S. pneumoniae D39V [8]	-0.0434
